Measured values: PubChem BioAssay (NCI)
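Where inhibition never reached the appropriate level, the endpoint shown equals the highest concentration tested. Otherwise, values were interpolated linearly from a five-concentration, 48-hour dose response in 96-well plates. TGI: total growth inhibition.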

Legend:
Assay in all cases: NCI tumour cell line growth inhibition, 48 h
[1] = test system: SK-MEL-2 melanoma
[2] = test system: HS 578T breast
[3] = test system: HL-60(TB) leukemia
[4] = test system: SK-OV-3 ovarian
[5] = test system: CAKI-1 renal
[6] = test system: IGROV1 ovarian
[7] = test system: MDA-MB-435
[8] = test system: COLO 205 colon
[9] = test system: HCT-15 colon
[10] = test system: UACC-62 melanoma
[11] = test system: SN12C renal
[12] = test system: DU-145 prostate
[13] = test system: A549 NSCLC
[14] = test system: UACC-257 melanoma
[15] = test system: 786-0 renal
[16] = test system: TK-10 renal
[17] = test system: MOLT-4 leukemia
[18] = test system: NCI-H522 lung
[19] = test system: M14 melanoma
[20] = test system: KM12 colon
[21] = test system: OVCAR-8 ovarian
[22] = test system: RPMI-8226 leukemia
[23] = test system: K-562 leukemia
[24] = test system: HCC-2998 colon
[25] = test system: ACHN renal
[26] = test system: SK-MEL-28 melanoma
[27] = test system: NCI-H460 lung
[28] = test system: UO-31 renal
[29] = test system: BT-549 breast
[30] = test system: OVCAR-4 ovarian
[31] = test system: MCF7 breast
[32] = test system: U251 CNS
[33] = test system: SR leukemia
[34] = test system: NCI-H226 lung
[35] = test system: OVCAR-3 ovarian
[36] = test system: HCT-116 colon
[37] = test system: NCI-H23 lung
[38] = test system: MDA-MB-231 breast
[39] = test system: SF-295 CNS
[40] = test system: HT29 colon
[41] = test system: PC-3 prostate
[42] = test system: NCI/ADR-RES ovarian
[43] = test system: EKVX NSCLC
[44] = test system: SW-620 colon
[45] = test system: OVCAR-5 ovarian
[46] = test system: LOX IMVI melanoma
[47] = test system: MDA-N
[48] = test system: SF-268 CNS
[49] = test system: SK-MEL-5 melanoma
[50] = test system: HOP-92 NSCLC
[51] = test system: SF-539 CNS
[52] = test system: SNB-75 CNS
[53] = test system: A498 renal
[54] = test system: CCRF-CEM leukemia
[55] = test system: MALME-3M melanoma
[56] = test system: RXF 393 renal
[57] = test system: SNB-19 CNS
[58] = test system: T-47D breast

SMILES: NC(=O)NC(=O)c1cccc(CNc2ccc(C(=O)N[C@@H](CCC(=O)O)C(=O)O)cc2)n1
- TGI [1]: > 100 µM
- TGI [2]: > 100 µM
- TGI [3]: > 100 µM
- TGI [4]: > 100 µM
- TGI [5]: > 100 µM
- TGI [6]: > 100 µM
- TGI [7]: > 100 µM
- TGI [8]: > 100 µM
- TGI [9]: > 100 µM
- TGI [10]: > 100 µM
- TGI [11]: > 100 µM
- TGI [12]: > 100 µM
- TGI [13]: > 100 µM
- TGI [14]: > 100 µM
- TGI [15]: > 100 µM
- TGI [16]: > 100 µM
- TGI [17]: > 100 µM
- TGI [18]: > 100 µM
- TGI [19]: > 100 µM
- TGI [20]: > 100 µM
- TGI [21]: > 100 µM
- TGI [22]: > 100 µM
- TGI [23]: > 100 µM
- TGI [24]: > 100 µM
- TGI [25]: > 100 µM
- TGI [26]: > 100 µM
- TGI [27]: > 100 µM
- TGI [28]: > 100 µM
- TGI [29]: > 100 µM
- TGI [30]: > 100 µM
- TGI [31]: > 100 µM
- TGI [32]: > 100 µM
- TGI [33]: > 100 µM
- TGI [34]: > 100 µM
- TGI [35]: > 100 µM
- TGI [36]: > 100 µM
- TGI [37]: > 100 µM
- TGI [38]: > 100 µM
- TGI [39]: > 100 µM
- TGI [40]: > 100 µM
- TGI [41]: > 100 µM
- TGI [42]: > 100 µM
- TGI [43]: > 100 µM
- TGI [44]: > 100 µM
- TGI [45]: > 100 µM
- TGI [46]: > 100 µM
- TGI [47]: > 100 µM
- TGI [48]: > 100 µM
- TGI [49]: > 100 µM
- TGI [50]: > 100 µM
- TGI [51]: > 100 µM

SMILES: COc1cc(NC(C)=O)ccc1C(=O)NN1C(=O)C(Cl)C1c1ccco1 (stereo not drawn)
- TGI [1]: > 100 µM
- TGI [3]: > 100 µM
- TGI [5]: > 100 µM
- TGI [6]: > 100 µM
- TGI [52]: > 100 µM
- TGI [7]: > 100 µM
- TGI [8]: > 100 µM
- TGI [9]: > 100 µM
- TGI [10]: > 100 µM
- TGI [11]: > 100 µM
- TGI [12]: > 100 µM
- TGI [13]: > 100 µM
- TGI [15]: > 100 µM
- TGI [17]: > 100 µM
- TGI [53]: > 100 µM
- TGI [18]: > 100 µM
- TGI [54]: > 100 µM
- TGI [19]: > 100 µM
- TGI [20]: > 100 µM
- TGI [21]: > 100 µM
- TGI [22]: > 100 µM
- TGI [23]: > 100 µM
- TGI [25]: > 100 µM
- TGI [26]: > 100 µM
- TGI [28]: > 100 µM
- TGI [55]: > 100 µM
- TGI [29]: > 100 µM
- TGI [30]: > 100 µM
- TGI [31]: > 100 µM
- TGI [33]: > 100 µM
- TGI [34]: > 100 µM
- TGI [35]: > 100 µM
- TGI [36]: > 100 µM
- TGI [37]: > 100 µM
- TGI [56]: > 100 µM
- TGI [40]: > 100 µM
- TGI [41]: > 100 µM
- TGI [57]: > 100 µM
- TGI [42]: > 100 µM
- TGI [43]: > 100 µM
- TGI [44]: > 100 µM
- TGI [45]: > 100 µM
- TGI [46]: > 100 µM
- TGI [47]: > 100 µM
- TGI [48]: > 100 µM
- TGI [49]: > 100 µM
- TGI [50]: > 100 µM
- TGI [58]: > 100 µM
- TGI [51]: > 100 µM

SMILES: Cc1nc(C(N)=S)sc1C(/C=C/c1ccc(Cl)c(Cl)c1)=N/NC(C)(C)C
- TGI [1]: > 100 µM
- TGI [2]: > 100 µM
- TGI [3]: > 100 µM
- TGI [4]: > 100 µM
- TGI [5]: > 100 µM
- TGI [6]: > 100 µM
- TGI [52]: > 100 µM
- TGI [7]: > 100 µM
- TGI [8]: > 100 µM
- TGI [9]: > 100 µM
- TGI [10]: > 100 µM
- TGI [11]: > 100 µM
- TGI [12]: > 100 µM
- TGI [13]: > 100 µM
- TGI [14]: > 100 µM
- TGI [15]: > 100 µM
- TGI [16]: > 100 µM
- TGI [17]: 80.5 µM
- TGI [18]: > 100 µM
- TGI [54]: > 100 µM
- TGI [20]: > 100 µM
- TGI [21]: > 100 µM
- TGI [24]: > 100 µM
- TGI [25]: > 100 µM
- TGI [26]: > 100 µM
- TGI [27]: > 100 µM
- TGI [28]: > 100 µM
- TGI [29]: > 100 µM
- TGI [30]: > 100 µM
- TGI [31]: > 100 µM
- TGI [32]: > 100 µM
- TGI [34]: > 100 µM
- TGI [36]: > 100 µM
- TGI [37]: > 100 µM
- TGI [38]: > 100 µM
- TGI [39]: > 100 µM
- TGI [56]: > 100 µM
- TGI [40]: > 100 µM
- TGI [41]: > 100 µM
- TGI [57]: > 100 µM
- TGI [42]: > 100 µM
- TGI [43]: > 100 µM
- TGI [44]: > 100 µM
- TGI [46]: > 100 µM
- TGI [47]: > 100 µM
- TGI [48]: > 100 µM
- TGI [49]: > 100 µM
- TGI [50]: > 100 µM
- TGI [51]: > 100 µM

SMILES: O=C(Nc1cc2c(=O)oc3ccccc3c2oc1=O)c1cccnc1
- TGI [1]: > 100 µM
- TGI [3]: > 100 µM
- TGI [4]: > 100 µM
- TGI [5]: > 100 µM
- TGI [6]: > 100 µM
- TGI [52]: > 100 µM
- TGI [7]: > 100 µM
- TGI [8]: > 100 µM
- TGI [9]: > 100 µM
- TGI [10]: > 100 µM
- TGI [11]: > 100 µM
- TGI [12]: > 100 µM
- TGI [13]: > 100 µM
- TGI [14]: > 100 µM
- TGI [15]: > 100 µM
- TGI [16]: > 100 µM
- TGI [17]: > 100 µM
- TGI [18]: > 100 µM
- TGI [54]: > 100 µM
- TGI [19]: > 100 µM
- TGI [20]: > 100 µM
- TGI [21]: > 100 µM
- TGI [23]: > 100 µM
- TGI [24]: > 100 µM
- TGI [25]: > 100 µM
- TGI [26]: > 100 µM
- TGI [27]: > 100 µM
- TGI [28]: > 100 µM
- TGI [55]: > 100 µM
- TGI [29]: > 100 µM
- TGI [30]: > 100 µM
- TGI [31]: > 100 µM
- TGI [32]: > 100 µM
- TGI [33]: > 100 µM
- TGI [34]: > 100 µM
- TGI [35]: > 100 µM
- TGI [36]: > 100 µM
- TGI [37]: > 100 µM
- TGI [38]: > 100 µM
- TGI [39]: > 100 µM
- TGI [56]: > 100 µM
- TGI [40]: > 100 µM
- TGI [41]: > 100 µM
- TGI [57]: > 100 µM
- TGI [42]: > 100 µM
- TGI [43]: > 100 µM
- TGI [44]: > 100 µM
- TGI [45]: > 100 µM
- TGI [46]: > 100 µM
- TGI [47]: > 100 µM
- TGI [49]: > 100 µM
- TGI [50]: > 100 µM
- TGI [58]: > 100 µM
- TGI [51]: > 100 µM
